Legend:
[1] = test system: root meristem cells of Allium cepa; experiment: In vitro antimitotic activity and cytogenetic analysis, Allium cepa meristem root model; type: cell-based; details: for Aberrant cells (%) ± SEM / Chromosome breaks (%) ± SEM / MNC (‰) ± SEM (micronuclei per 1,000 cells) / Polar deviations (%) ± SEM / Stickiness (%) ± SEM / MI (%) ± SEM (mitotic index): compounds 1 mg/mL, PC (EMS) 2 × 10^−2 M; for MI (%) ± SEM (mitotic index): lower MI = higher activity, negative control 6.22
Experimental: Small bulbs (1.5–2.0 cm in diameter) of the common onion, A. cepa (2n = 16), were purchased from vendor at a local market. Prior to initiating the test, the outer scales of the bulbs and the dry bottom plate were removed without destroying the root primordia. The roots of A. cepa were grown in distilled water in Erlenmeyer flasks (200 mL capacity) under laboratory conditions (dark 24 °C). For each synthesized compound sample, after reaching a length of 3 cm (±0.5 cm), a series of six bulbs were placed in distilled water (pH 7.3) for 48 h and then onion roots were treated with the synthesized compound at 1 mg/mL concentrations of each tested compound. The test tubes were kept in an incubator at 22 ± 1 °C, and the test samples were changed daily at the same time. Several of the newly formed root tips were then cut from each bulb and examined for any visible morphological abnormalities. The bulbs with satisfactory root lengths (2–2.5 cm) were used in the study, while those with exceptionally long or short roots were discarded (on average 2–3 bulbs). Therefore, individual sets of five bulbs were used for each extract sample.
Distilled water (pH 7.3) was used as a negative control, and EMS (2 × 10^−2 M) used as a positive control mutagen (Fiskesjo, [1993], [1997]). After 24 h of exposure, several root tips were removed from the bulbs, fixed in 3:1 (v/v) ethanol (90 %)/glacial acetic acid (45 %) and stored overnight at 4 °C. The next day, they were placed in 70 % (v/v) aqueous alcohol and refrigerated until used. Allium roots were softened by digesting with HCl and rinsed the roots in water. After removing the water from the third rinse, the roots were covered with the orcein acetate stain. The roots were incubated in the stain for 12 min. During this time, the very tip of the root begins to turn red as the DNA stains the numerous small actively dividing cells at the tip. A root was transferred to the centre of a clean microscope slide, and a drop of water was added. Using a razor blade most of the unstained part of the root was cut off and discarded. The root tip was covered with a cover slip and then carefully pushed down on the cover slide with the wooden end of a dissecting probe. […] The root tip should spread out to a diameter about 0.5–1 cm. Five slides were prepared per bulb.
The following parameters were used for the determination of cytotoxicity and genotoxicity: • (i) the mitotic index (MI) was calculated as the ratio between the number of mitotic cells and the total number of cells scored and expressed as percentage using following formula as per standard procedures. Mitoticindex=Numberofdividingcells/Totalnumberofcells×100 • (ii) Chromatin aberrations (stickiness, breaks and polar deviation) were used as end points for the determination of cytogenetic effects, and micronuclei (MNC) were scored in interphase cells per 1,000 cells (‰ MNC) (Freshney, [2000]). • (iii) The most frequent abnormalities are shown in microphotographs. After 72 h of exposure to the test samples, the root lengths were measured and used as an index of general toxicity. The results for mitotic index and root length are expressed as percentage of the negative and positive controls. Visible morphological modifications, such as changes in root consistency and colour as well as the presence of swelling (c-tumours), hooks or twists in the roots, were also observed.

[2] = test system: HEK 293, M468 and NCI-H226; experiment: In vitro cytotoxicity by MTT assay, summary over all cell lines; type: cell-based; details: on all cell lines
Experimental: The cancer cell line cultures of HEK 293 ([…]), BT474 (breast cancer cell line) and NCI-H226 (lung cancer) were obtained from Pasteur Institute of India, Coonoor, India, and were cultured in RPMI-1640 and 10 % heat-[…] New born calf serum with antibiotics [penicillin ([…]), streptomycin (100 μg/mL) and amphotericin B (25 μg/mL)]. The cells were maintained at 37 °C in a humidified atmosphere with 5 % CO2 and were subcultured twice a week.
The monolayer cell culture (100 μL) was trypsinized, and the cell count was adjusted to […] using medium containing 10 % new born calf serum. To each well of the 96-well microtitre plate, the diluted cell suspension (approximately 10,000 cells) (0.1 mL) was added and kept for 24 h in incubator at 37 °C in 5 % CO2 atmosphere for cell monolayer formation. After 24 h, when a partial monolayer was formed at the bottom of the well, the supernatant was flicked off, the monolayer was washed once, and different drugs, i.e. synthesized compounds (100 μL), were added to the cells in microtitre plates. The plates were then incubated at 37 °C for 3 days in 5 % CO2 atmosphere, and microscopic examination was carried out and observations recorded every 24 h. After 72 h, the sample solution in the wells was flicked off; MTT dye ([…]) was added to each well; plates were gently shaken and incubated for 4 h at 37 °C in 5 % CO2 incubator. The supernatant was removed and propanol (50 μL) was added; the plates were gently shaken to solubilize the formed formazan. The absorbance was measured using a microplate reader at a wavelength of 490 nm (Edmondson et al., [1988]; Prasad et al., [2005]; Chiruvella et al., [2008]; Chang et al., [2007]).

Row | SMILES | Aberrant cells (%) ± SEM [1] | Chromosome breaks (%) ± SEM [1] | Polar deviations (%) ± SEM [1] | Stickiness (%) ± SEM [1] | MNC (‰) ± SEM (micronuclei per 1,000 cells) [1] | MI (%) ± SEM (mitotic index) [1] | cytotoxic activity compared with all synthesized compounds [2] | average root length ([1]; after 72 h of treatment, negative control 3.93 cm)
1 | O=C(NS(=O)(=O)c1nnc(N=Cc2ccccc2)s1)c1ccccc1 [Compound 9a, N-{[5-(Benzylidenamino)-1,3,4-thiadiazol-2-yl]sulphonyl} benzamide] | 19.28 ± 5.22% | 6.22 ± 1.02% | 8.62 ± 2.16% | 6.64 ± 2.38% | 0.34 ± 0.15 ‰ | 3.22 ± 0.16% |  | 
2 | O=C(NS(=O)(=O)c1nnc(N=Cc2ccc(Cl)cc2)s1)c1ccccc1 [Compound 9b, N-({5-[(4-Chlorobenzylidene)amino]-1,3,4-thiadiazol-2-yl}sulfonyl)benzamide] | 24.64 ± 7.01% | 3.36 ± 0.57% | 7.32 ± 1.24% | 9.12 ± 1.33% | 0.42 ± 0.18 ‰ | 2.77 ± 0.19% | more potent | 
3 | COc1ccccc1C=Nc1nnc(S(=O)(=O)NC(=O)c2ccccc2)s1 [Compound 9c, N-({5-[(2-Methoxybenzylidene)amino]-1,3,4-thiadiazol-2-yl}sulfonyl)benzamide] | 38.54 ± 8.18% |  | 7.22 ± 2.61% | 28.04 ± 6.34% | 0.36 ± 0.14 ‰ | 0.53 ± 0.03% | more potent | 
4 | COc1ccc(C=Nc2nnc(S(=O)(=O)NC(=O)c3ccccc3)s2)cc1 [Compound 9d, N-({5-[(4-Methoxybenzylidene)amino]-1,3,4-thiadiazol-2-yl}sulfonyl)benzamide] | 25.33 ± 9.42% | 0.96 ± 0.46% | 9.15 ± 6.92% | 14.48 ± 2.52% | 0.51 ± 0.17 ‰ | 2.34 ± 0.19% |  | 

More lines, main results first:

Row | Aberrant cells (%) ± SEM [1] | Chromosome breaks (%) ± SEM [1] | Polar deviations (%) ± SEM [1] | Stickiness (%) ± SEM [1] | SMILES | MNC (‰) ± SEM (micronuclei per 1,000 cells) [1] | MI (%) ± SEM (mitotic index) [1] | cytotoxic activity compared with all synthesized compounds [2] | average root length ([1]; after 72 h of treatment, negative control 3.93 cm)
5 | 26.74 ± 6.56% | 2.72 ± 0.94% | 8.41 ± 1.35% | 9.88 ± 1.46% | O=C(NS(=O)(=O)c1nnc(N=Cc2ccc(O)cc2)s1)c1ccccc1 [Compound 9e, N-({5-[(4-Hydroxybenzylidene)amino]-1,3,4-thiadiazol-2-yl}sulfonyl)benzamide] | 0.21 ± 0.06 ‰ | 1.27 ± 0.11% |  | 
6 | 33.41 ± 9.47% | 1.47 ± 0.13% | 7.33 ± 2.52% | 21.96 ± 7.22% | O=C(NS(=O)(=O)c1nnc(N=Cc2ccccc2O)s1)c1ccccc1 [Compound 9f, N-({5-[(2-Hydroxybenzylidene)amino]-1,3,4-thiadiazol-2-yl}sulfonyl)benzamide] | 0.39 ± 0.20 ‰ |  |  | 1.06 cm
7 | 40.48 ± 12.94% |  | 10.26 ± 2.13% | 32.24 ± 6.92% | COc1cc(C=Nc2nnc(S(=O)(=O)NC(=O)c3ccccc3)s2)ccc1O [Compound 9g, N-({5-[(4-Hydroxy-3-methoxybenzylidene)amino]-1,3,4-thiadiazol-2-yl}sulfonyl)benzamide] | 0.48 ± 0.32 ‰ | 0.41 ± 0.04% | less activity | 
8 | 29.83 ± 5.03% | 2.43 ± 0.67% | 8.91 ± 1.56% | 16.50 ± 3.23% | CN(C)c1ccc(C=Nc2nnc(S(=O)(=O)NC(=O)c3ccccc3)s2)cc1 [Compound 9h, N-[(5-{[4-(Dimethylamino)benzylidene]amino}-1,3,4-thiadiazol-2-yl)sulfonyl]benzamide] | 0.31 ± 0.14 ‰ | 1.07 ± 0.13% |  | 

From paper PMC3973950, “Synthesis of 5-arylidine amino-1,3,4-thiadiazol-2-[(N-substituted benzyol)]sulphonamides endowed with potent antioxidants and anticancer activity induces growth inhibition in HEK293, BT474 and NCI-H226 cells” (Medicinal Chemistry Research, 2013)
